# System: Granny Smith apples
# Test: Anti-scald treatment on apples, treating composition applied for 3 minutes by immersion or spraying, then 8 days storage at 20° C.
# Procedure: The examples which follow illustrate the invention in further detail. In these examples, the treating composition, preheated to 50° C., is applied for 3 minutes to Granny Smith apples, by immersion or spraying. Treating composition (Composition A) consists of water and 1500 ppm of α-tocopherol. The treatment is carried out by applying the treating composition, brought to 50° C., to the apples for 3 minutes. The treated apples are then stored at ambient temperature (20° C.) for 8 days. The proportion of healthy apples, the proportion of apples for which less than 1 cm^2 of surface area is deteriorated by scald, and the proportion of apples for which more than 1 cm^2 of surface area is affected are then quantified. The apples are treated under the same conditions as in Example 1. By way of additional comparison, the same amount of apples was treated with composition D maintained at ambient temperature (i.e. between 20 and 22° C.). The apples thus treated were then stored for 8 days at ambient temperature (20° C.).
structure (smiles),measurement,value
"Cc1c(C)c2c(c(C)c1O)CC[C@@](C)(CCC[C@H](C)CCC[C@H](C)CCCC(C)C)O2 [vitamin e, 5,7,8-trimethyltocol]",antioxidant activity at ambient temperature,virtually zero
